Experimental data from article PMC10499603, “Polθ is phosphorylated by PLK1 to repair double-strand breaks in mitosis” (Nature, 2023).

Experiments:
[1] = system: Polθ nuclear bodies; experiment: Polθ nuclear bodies in G1 after siRNA; format: cell-based, human; conditions: siRNA knockdown, G1 cells
Description: Transfection of siRNA oligonucleotides (Eurofins) was performed using Lipofectamine RNAiMax (ThermoFisher Scientific) following the manufacturer’s instructions.
Cells grown on coverslips were fixed for 15 min in 2% paraformaldehyde, permeabilized for 10 min in 0.5% Triton X-100, blocked for 30 min in BSA 5%, 0.1% Triton X-100, immunostained for 1 h with primary antibodies, 45 min with secondary antibodies (Highly Cross-Adsorbed Secondary Antibodies Alexa Fluor, ThermoFisher Scientific) and mounted Vectashield mounting medium containing DAPI (Vector Laboratories). The same protocol was applied to mitotic cells, which were collected by shake off and centrifuged onto glass slides using a cytospin centrifuge (400g, 5 min) before fixation. […] Biotin azide-EdU click-it reaction was performed after fixation and permeabilization by incubating cells with a mix of Picolyl biotin, CuSO4, THPTA (Jena Bioscience) and sodium ascorbate in PBS for 30 min in the dark followed by an incubation with streptavidin conjugated Alex fluor 647 antibody (ThermoFisher Scientific) during 1 h at room temperature. Images were taken at 60× or 100× magnification using Upright Spinning disk Confocal Microscope (Roper/Zeiss) or at 40× magnification using DeltaVision (Deconvolution) Image Restoration Microscope. […] Images were analysed using the Fiji software. […]

[2] = system: Polθ foci in G2, wild-type cells; experiment: Polθ foci in G2; format: cell-based, human; conditions: aphidicolin 0.4 to 1.6 μM
Description: (§1) Cells grown on coverslips were fixed for 15 min in 2% paraformaldehyde, permeabilized for 10 min in 0.5% Triton X-100, blocked for 30 min in BSA 5%, 0.1% Triton X-100, immunostained for 1 h with primary antibodies, 45 min with secondary antibodies (Highly Cross-Adsorbed Secondary Antibodies Alexa Fluor, ThermoFisher Scientific) and mounted Vectashield mounting medium containing DAPI (Vector Laboratories). The same protocol was applied to mitotic cells, which were collected by shake off and centrifuged onto glass slides using a cytospin centrifuge (400g, 5 min) before fixation. […] Biotin azide-EdU click-it reaction was performed after fixation and permeabilization by incubating cells with a mix of Picolyl biotin, CuSO4, THPTA (Jena Bioscience) and sodium ascorbate in PBS for 30 min in the dark followed by an incubation with streptavidin conjugated Alex fluor 647 antibody (ThermoFisher Scientific) during 1 h at room temperature. Images were taken at 60× or 100× magnification using Upright Spinning disk Confocal Microscope (Roper/Zeiss) or at 40× magnification using DeltaVision (Deconvolution) Image Restoration Microscope. All images were taken with a Z-stack of 0.4 μM on 8 μM range around focus and projected using maximum intensity projection. Images were analysed using the Fiji software. […] Images were mounted in SoftWoRx and analysed using the Fiji software (1.53c). […]

[3] = system: Polθ foci in mitosis; experiment: Polθ recruitment to DSBs in mitosis under PLK1 inhibition; format: cell-based, human; conditions: wild-type Polθ expressing cells, PLK1i (Volasertib, 200 nM)
Description: as §1

[4] = system: Polθ phosphorylation; experiment: Label-free MS quantification of Polθ phospho-sites in mitotic HeLa GFP-Polθ cells; format: cell-based, Homo sapiens; conditions: nocodazole 16 h, volasertib during last hour, IP 500 mM NaCl, five experiments
Description: For the identification of Polθ binding partners by mass spectrometry, Polθ immunoprecipitation was performed as described above in 5 mg of nuclear extract of HEK-293T NeonGreen-POLQ knock-in cells. Lysates were incubated with mNeonGreen-Trap Magnetic Agarose beads (Chromotek) for 2 h at 4 °C and beads were washed twice with 150 mM NaCl buffer, once with 300 mM NaCl and three times in 25 mM ammonium bicarbonate. Finally, beads were resuspended in 100 µl 25 mM ammonium bicarbonate and digested by adding 0.2 μg of trypsin/LysC (Promega) for 1 h at 37 °C. Samples were then loaded into custom-made C18 StageTips packed by stacking one AttractSPE disk (SPE-Disks-Bio-C18-100.47.20 Affinisep) and 2 mg beads (186004521 SepPak C18 Cartridge Waters) into a 200 µl micropipette tip for desalting. Peptides were eluted using a ratio of 40:60 MeCN:H2O + 0.1% formic acid and vacuum concentrated to dryness. Peptides were reconstituted in injection buffer (0.3% TFA) before liquid chromatography–tandem mass spectrometry (LC–MS/MS) analysis by using an RSLCnano system (Ultimate 3000, Thermo Scientific) coupled to an Orbitrap Exploris 480 mass spectrometer (Thermo Scientific) as described previously. Mass spectrometry analysis was performed on three independent experiments. NeonGreen-Trap Magnetic Agarose beads incubated in HEK native cell extracts were used as control. For Polθ phosphorylated sites identification by mass spectrometry, Hela cells expressing GFP–Polθ were blocked 16 h in nocodazole. DMSO or Volasertib was added during the last hour of nocodazole treatment. 5 mg of nuclear extract were incubated with GFP Trap Magnetic Agarose beads (Chromotek) for 2 h at 4 °C and beads were washed once with 150 mM NaCl buffer, twice with 300 mM NaCl and twice with 500 mM NaCl buffer. Finally, beads were resuspended in 100 µl 25 mM Ammonium bicarbonate and digested by adding 0.2 μg of trypsin/LysC (Promega) for 1 h at 37 °C. Samples were then desalted and peptides were reconstituted in injection buffer before LC–MS/MS analysis as described previously in the Polθ binding partners identification. Mass spectrometry analysis was performed on five independent experiments. GFP Trap Magnetic Agarose beads incubated in HeLa native cell extracts were used as controls. […] Beads were resuspended, digested and desalted, and then peptides were reconstituted in injections buffer before LC–MS/MS analysis, as described for Polθ binding partners identification and by using an Orbitrap Eclipse mass spectrometer. Mass spectrometry analysis was performed on five independent experiments. Pull-downs of streptavidin beads incubated in nuclear extract of HeLa cells were used as control.

[5] = system: mitotic end joining; experiment: Mitotic end-joining repair assay (extrachromosomal substrate, qPCR); format: cell-based, human; conditions: PLK1i (Volasertib, 200 nM), mitotic cells, substrate 150 ng, 1.5 h
Excerpt: To assess mitotic end-joining repair, a DNA repair substrate was designed to mimic resected DNA ends containing four microhomologies, as previously described. The repair substrate was built by ligating a PCR product (GFP sequence) to DNA oligonucleotide duplexes on both sides. The PCR product (747 bp) was amplified from a GFP sequence (PCAG vector, Addgene) using the following oligonucleotide sequences (Fwd core GFP: […], Rev core GFP: […]), digested by the BsaI-HF v2 enzyme (NEB) to reveal 4 nucleotides (nts) complementary to the DNA oligonucleotide duplexes and finally, purified (Gel and PCR cleanup kit Macherey-Nagel). In parallel, two oligonucleotide duplexes (1 and 2) with ~70 nts overhangs were made after annealing (95 °C 10 min, 25 °C 30 min) of the following oligonucleotides. Oligonucleotides for duplex 1 (17 nt dsDNA, 69 nt ssDNA): oligo 1-A, […]; oligo 1-B, […]. Oligonucleotides for duplex 2 (15 nt dsDNA, 71 nt ssDNA): oligo 2-A, […]; oligo 2-B: […]. […]
To measure DNA repair efficiency, a qPCR was performed both on the GFP sequence (to control for the DNA repair substrate transfection) as well as on potential end-joining repair products. Mitotic end-joining repair efficiency was calculated using ΔΔCt between GFP qPCR and end-joining qPCR using SYBR Green Master Mix (ThermoFisher Scientific).

[6] = system: mitotic BRCA2^−/− cells; experiment: Metaphase spreads, chromosomal abnormalities; format: cell-based, human; conditions: Rucaparib, 1 h in mitosis
Description: Cells were blocked in G2 with RO3306 (5 μM) for 16 h, released, then blocked in mitosis by nocodazole and subsequently treated with Rucaparib for 1 h. After shake off, mitotic cells were centrifuged and subsequently resuspended in a pre-warmed hypotonic solution (0.075 M KCl) and maintained at 37 °C for 15 min. Cells were then centrifuged, and pellets were fixed in fresh methanol and stored at −20 °C. After metaphase spreading, air-dried slides were stained with a Gurr/Giemsa/Acetone solution (Gibco, 10582013; Giemsa (KaryoMAX Giemsa stain solution, Gibco, 10092013)) for 5 min and then rinsed twice with Gurr buffer. Slides were air-dried and neo-mounted with anhydrous mounting medium (Merck, 109016). Images were acquired at 100× magnification using DeltaVision (Deconvolution) Image Restoration Microscope.

[7] = system: BRCA2^−/− cells; experiment: Clonogenic survival, BRCA2^−/−; format: cell-based, human; conditions: Rucaparib 1 μM, 1 h in mitosis
Description: (§2) For mitotic cells: cells were blocked in G2 using RO3306 (5 μM), released, then blocked in mitosis by nocodazole and subsequently seeded for clonogenic survival. Polθ-mAID cells were blocked 4 h in RO3306 (5 μM) with or without IAA (500 μM) and released in nocodazole with or without IAA for 1 h. In the case of PARPi treatment, cells were blocked 16 h in RO3306 (5 μM) and released in nocodazole with or without Rucaparib (1 μM) for 1 h. After shake off, mitotic cells were washed twice with warm media, counted and seeded for clonogenic survival. For interphase cells: growing cells were treated with IAA (500 μM), or Rucaparib (1 μM) for indicated time, washed twice with warm media and counted. For clonogenic assay upon siRNA transfection, 150,000 cells were plated per well of a 6-well plate and transfected the same day with indicated siRNA. The day after, cells were washed twice, counted and seeded for clonogenic survival. For each condition, two concentrations of cells (BRCA2^−/− cells: 500 and 2000 cells; wild-type cells: 50 and 150 cells) were seeded per well of a 6-well plate. Finally, 10 to 14 days after seeding, colonies were stained with blue methylene (Sigma, 1808) for 2 h at room temperature, washed in water, air-dried overnight and scored manually.

[8] = system: wild-type cells; experiment: Clonogenic survival, wild-type; format: cell-based, human; conditions: Rucaparib 1 μM, 1 h in mitosis
Description: as §2

[9] = system: mitotic BRCA2^−/− cells; experiment: γH2AX / DSB formation in mitotic cells; format: cell-based, human; conditions: Rucaparib 1 μM, 1 h in mitosis
Description: Cells grown on coverslips were fixed for 15 min in 2% paraformaldehyde, permeabilized for 10 min in 0.5% Triton X-100, blocked for 30 min in BSA 5%, 0.1% Triton X-100, immunostained for 1 h with primary antibodies, 45 min with secondary antibodies (Highly Cross-Adsorbed Secondary Antibodies Alexa Fluor, ThermoFisher Scientific) and mounted Vectashield mounting medium containing DAPI (Vector Laboratories). The same protocol was applied to mitotic cells, which were collected by shake off and centrifuged onto glass slides using a cytospin centrifuge (400g, 5 min) before fixation. […] Biotin azide-EdU click-it reaction was performed after fixation and permeabilization by incubating cells with a mix of Picolyl biotin, CuSO4, THPTA (Jena Bioscience) and sodium ascorbate in PBS for 30 min in the dark followed by an incubation with streptavidin conjugated Alex fluor 647 antibody (ThermoFisher Scientific) during 1 h at room temperature. Images were taken at 60× or 100× magnification using Upright Spinning disk Confocal Microscope (Roper/Zeiss) or at 40× magnification using DeltaVision (Deconvolution) Image Restoration Microscope. All images were taken with a Z-stack of 0.4 μM on 8 μM range around focus and projected using maximum intensity projection. Images were analysed using the Fiji software. All scale bars represent 5 μm unless stated otherwise.

[10] = system: Polθ recruitment to mitotic DSBs; experiment: Polθ recruitment to laser microirradiated stripes in mitosis; format: cell-based, human; conditions: PARPi (Rucaparib), laser microirradiation
Description: Laser micro-irradiation was performed with a two-photon Ti:Saphire laser (Mai Tai DeepSee, Spectra Physics) at 800 nm with 20% power (from 2.1 W) on an inverted laser scanning confocal microscope equipped with spectral detection and a multi-photon laser (LSM880NLO/Mai Tai Laser, Zeiss, Spectra Physics), using a 40× objective NA1.3 oil DICII PL APO (420852-9870). Images were analysed using the ‘plot Z-axis profile’ function of Fiji (version 2.1.0/1.53c). X-ray irradiations were performed using the CIXD Dual Irradiator (RadeXp platform, Institut Curie).

## CAGGACAGUCUUUCCACGAdTdT (sense CAGGACAGUCUUUCCACGATT; chemistry not fully specified) [53BP1, siRNA targeting 53BP1]
[1]
  Polθ nuclear body formation: increased Polθ nuclear body formation

## C[C@@]1(CO)[C@H](O)CC[C@@]2(C)[C@H]1CC[C@H]1C[C@@H]3C[C@@]12CC[C@]3(O)CO [aphidicolin, Aphidicolin]
[2]
  Polθ foci in G2: Polθ foci in G2 could be induced by replication stress (aphidicolin treatment) in wild-type cells, to the level of that in BRCA2^−/− cells

## CC[C@@H]1C(=O)N(C)c2cnc(Nc3ccc(C(=O)N[C@H]4CC[C@H](N5CCN(CC6CC6)CC5)CC4)cc3OC)nc2N1C(C)C [Volasertib]
[3]
  Polθ recruitment to DSBs in mitosis: neither mutant was recruited to DSBs in mitosis (Fig. 3f, Extended Data Fig. 8a and Supplementary Video 4), similar to our observations in wild-type Polθ expressing cells under PLK1 inhibition
[4]
  Ratio Nocodazole / Volacertib, phospho-site S1628.S1639: 5.418
[4]; adj. p 0.00104923
  Ratio Nocodazole / Volacertib, phospho-site S1594: 1.901
[4]; adj. p 0.0536125, * only re-extracted peptides by MBR
  Ratio Nocodazole / Volacertib, phospho-site S1094*: 1.958
[4]; adj. p 0.0634598
  Ratio Nocodazole / Volacertib, phospho-site T1755: 3.242
[4]; adj. p 0.115005, * only re-extracted peptides by MBR
  Ratio Nocodazole / Volacertib, phospho-site S1436*: 1.887
[4]; adj. p 0.400471
  Ratio Nocodazole / Volacertib, phospho-site S1289: 3.904
[5]
  efficiency of mitotic end joining: greatly impaired the efficiency of mitotic end joining

## CNCc1ccc(-c2[nH]c3cc(F)cc4c3c2CCNC4=O)cc1 [Rucaparib]
[6]
  chromosomal abnormalities (breaks and radials): induced the formation of DSBs and chromosomal abnormalities
[7]
  clonogenic survival / cell killing: sufficient to kill BRCA2^−/−
[8]
  clonogenic survival / cell killing: sufficient to kill BRCA2^−/− but not wild-type cells
[9]
  DSB formation in mitosis: induced the formation of DSBs
[10]
  Polθ recruitment to mitotic DSBs: abolished
